Where “and” joins values, the source holds several entries; their conditions need not be identical. Equal values may be shown once. Toxic doses and inconclusive results are not listed.
Test system: P388 leukemia ip, CD2F1 mice, survival T/C
Assay: NCI In Vivo Anticancer Drug Screen. Data for tumor model P388 Leukemia (intraperitoneal) in CD2F1 (CDF1) mice
Settings: endpoint: median survival time, higher = longer survival
How it was run: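 Mice carrying the transplanted tumor received test compound or vehicle. Survival was recorded in each group, and the value is the treated-group measurement divided by that of the vehicle-treated control group.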

[1] = dose: 50.0 mg/kg/injection, schedule: Q01DX009 (ip), vehicle: saline with Tween-80
[2] = dose: 100.0 mg/kg/injection, schedule: Q01DX009 (ip), vehicle: saline with Tween-80
[3] = dose: 100.0 mg/kg/injection, schedule: Q04DX002 (ip), vehicle: saline with Tween-80
[4] = dose: 200.0 mg/kg/injection, schedule: Q04DX002 (ip), vehicle: saline with Tween-80
[5] = dose: 400.0 mg/kg/injection, schedule: Q04DX002 (ip), vehicle: saline with Tween-80
[6] = dose: 50.0 mg/kg/injection, schedule: Q01DX005 (ip), vehicle: saline
[7] = dose: 100.0 mg/kg/injection, schedule: Q01DX005 (ip), vehicle: saline
[8] = dose: 200.0 mg/kg/injection, schedule: Q01DX005 (ip), vehicle: saline
[9] = dose: 100.0 mg/kg/injection, schedule: Q04DX003 (ip), vehicle: saline
[10] = dose: 200.0 mg/kg/injection, schedule: Q04DX003 (ip), vehicle: saline
[11] = dose: 400.0 mg/kg/injection, schedule: Q04DX003 (ip), vehicle: saline
[12] = dose: 60.0 mg/kg/injection, schedule: Q01DX005 (ip), vehicle: saline with Tween-80
[13] = dose: 120.0 mg/kg/injection, schedule: Q01DX005 (ip), vehicle: saline with Tween-80
[14] = dose: 60.0 mg/kg/injection, schedule: Q01DX005 (ip), vehicle: Klucel (hydroxypropylcellulose) (HPC)
[15] = dose: 120.0 mg/kg/injection, schedule: Q01DX005 (ip), vehicle: Klucel (hydroxypropylcellulose) (HPC)
[16] = dose: 50.0 mg/kg/injection, schedule: Q01DX005 (ip), vehicle: saline with Tween-80
[17] = dose: 100.0 mg/kg/injection, schedule: Q01DX005 (ip), vehicle: saline with Tween-80
[18] = dose: 200.0 mg/kg/injection, schedule: Q01DX009 (ip), vehicle: saline with Tween-80
[19] = dose: 100.0 mg/kg/injection, schedule: Q01DX001 (ip), vehicle: saline with Tween-80
[20] = dose: 200.0 mg/kg/injection, schedule: Q01DX001 (ip), vehicle: saline with Tween-80
[21] = dose: 6.25 mg/kg/injection, schedule: Q01DX009 (ip), vehicle: Klucel (hydroxypropylcellulose) (HPC)
[22] = dose: 25.0 mg/kg/injection, schedule: Q01DX009 (ip), vehicle: Klucel (hydroxypropylcellulose) (HPC)

SMILES: O=C(OCC(Cl)(Cl)Cl)N1CCCCC1
- T/C (dose: 25.0 mg/kg/injection, schedule: Q01DX009 (ip), vehicle: saline with Tween-80): 98 % of control
- T/C [1]: 92 % of control
- T/C [2]: 102 % of control

SMILES: CCOC(=O)CC12C=CC(CC(=O)OCC)(CC1)n1c(=O)n(C)c(=O)n12
- T/C [3]: 100 % of control
- T/C [4]: 100 % of control
- T/C [5]: 101 % of control

SMILES: COC(=O)C(=C\c1nc2ccc([N+](=O)[O-])cc2s1)/C(C(=O)OC)=C1\CCCN1C
- T/C [6]: 100 % of control
- T/C [7]: 97 % of control
- T/C [8]: 97 % of control

SMILES: Cn1nnc(C(=O)O)n1
- T/C (dose: 50.0 mg/kg/injection, schedule: Q01DX001 (ip), vehicle: saline): 100 % of control
- T/C (dose: 100.0 mg/kg/injection, schedule: Q01DX001 (ip), vehicle: saline): 100 % of control
- T/C [9]: 103 % of control
- T/C (dose: 200.0 mg/kg/injection, schedule: Q01DX001 (ip), vehicle: saline): 101 % of control
- T/C [10]: 103 % of control
- T/C [11]: 100 % of control

SMILES: CC(NCCN(C)C)C1CC2CCCCN2C1 (stereo not given)
- T/C [12]: 104 % of control
- T/C [13]: 97 % of control

SMILES: CCN(CC)CCNc1ccc(COC(=O)OC)c2oc3ccccc3c(=O)c12
- T/C (dose: 6.25 mg/kg/injection, schedule: Q01DX005 (ip), vehicle: saline with Tween-80): 115 % of control
- T/C (dose: 12.5 mg/kg/injection, schedule: Q01DX005 (ip), vehicle: saline with Tween-80): 111 % of control
- T/C (dose: 25.0 mg/kg/injection, schedule: Q01DX005 (ip), vehicle: saline with Tween-80): 97 % of control

SMILES: OC(c1cccnc1)C(CCc1ccccn1)c1ccccn1 (stereo not given)
- T/C [9]: 102 % of control
- T/C [10]: 101 % of control
- T/C [11]: 91 % of control

SMILES: Nc1nc(-c2ccccn2)cc(-c2cc(-c3ccccn3)nc(N)n2)n1
- T/C [14]: 102 % of control
- T/C [15]: 112 % of control

SMILES: C(=C/c1nc2ccccc2nc1CCN1CCCCC1)/c1ccc2c(c1)OCO2
- T/C [16]: 100 % of control
- T/C [17]: 102 % of control
- T/C (dose: 200.0 mg/kg/injection, schedule: Q01DX005 (ip), vehicle: saline with Tween-80): 102 % of control

SMILES: C#CC(C)(C)Oc1ccc2c(=O)c(-c3ccc(OC)cc3)coc2c1
- T/C [16]: 94 % of control
- T/C [17]: 89 % of control

SMILES: O=CC(O)C(O)C1[O][Sb][O]C1CO (stereo not given)
- T/C [6]: 99 % of control
- T/C [7]: 100 % of control
- T/C [8]: 103 % of control

SMILES: Nc1nc2nc(-c3ccccc3)nc(N)c2nc1C(=O)N/N=C/c1ccccc1
- T/C [2]: 96 % of control
- T/C [18]: 95 % of control
- T/C (dose: 400.0 mg/kg/injection, schedule: Q01DX009 (ip), vehicle: saline with Tween-80): 100 % of control

SMILES: CC(C)(C)CC(C)(C)c1ccc(OCc2ccc(Cl)cc2)cc1
- T/C [1]: 100 % of control
- T/C [2]: 100 % of control
- T/C [18]: 98 % of control

SMILES: COC(=O)CC(c1ccccc1)C1(c2ccc3c(c2)OCO3)SCCCS1 (stereo not given)
- T/C [19]: 92 % of control
- T/C [20]: 90 % of control

SMILES: Cc1ccc[n+](Cc2ccccc2Cl)c1
- T/C (dose: 12.5 mg/kg/injection, schedule: Q01DX005 (ip), vehicle: Klucel (hydroxypropylcellulose) (HPC)): 113 % of control
- T/C (dose: 25.0 mg/kg/injection, schedule: Q01DX005 (ip), vehicle: Klucel (hydroxypropylcellulose) (HPC)): 113 % of control
- T/C (dose: 50.0 mg/kg/injection, schedule: Q01DX005 (ip), vehicle: Klucel (hydroxypropylcellulose) (HPC)): 101 % of control

SMILES: CCCCCCCCCCCOCC(=O)OC
- T/C [1]: 99 % of control
- T/C [2]: 101 % of control
- T/C [18]: 100 % of control

SMILES: CC(Cc1ccccc1)N(C)C(=O)c1ccc[n+](C)c1 (stereo not given)
- T/C [6]: 107 % of control
- T/C [7]: 109 % of control

SMILES: COC(=O)C1=NNc2ccccc2C(OC(C)=O)C1C (stereo not given)
- T/C [19]: 90 % of control
- T/C [20]: 96 % of control
- T/C (dose: 400.0 mg/kg/injection, schedule: Q01DX001 (ip), vehicle: saline with Tween-80): 97 % of control

SMILES: C1CCC2(CC1)SC1(CCCCC1)SC1(CCCCC1)S2
- T/C (dose: 100.0 mg/kg/injection, schedule: Q04DX003 (ip), vehicle: other): 100 % of control
- T/C (dose: 200.0 mg/kg/injection, schedule: Q04DX003 (ip), vehicle: other): 90 % of control
- T/C (dose: 400.0 mg/kg/injection, schedule: Q04DX003 (ip), vehicle: other): 95 % of control

SMILES: OC1COC(O)(CNCCc2c[nH]c3ccc(OCc4ccccc4)cc23)C(O)C1O (stereo not given)
- T/C [14]: 101 % of control
- T/C [15]: 99 % of control
- T/C (dose: 240.0 mg/kg/injection, schedule: Q01DX005 (ip), vehicle: Klucel (hydroxypropylcellulose) (HPC)): 87 % of control

SMILES: CSC(=Cc1ccc2cc(Br)ccc2[n+]1C)SC
- T/C (dose: 3.12 mg/kg/injection, schedule: Q01DX009 (ip), vehicle: Klucel (hydroxypropylcellulose) (HPC)): 110 % of control
- T/C [21]: 117 % of control and 121 % of control
- T/C [22]: 107 % of control

SMILES: CNS(=O)Nc1ccnc(=O)[nH]1 (stereo not given)
- T/C (dose: 50.0 mg/kg/injection, schedule: Q04DX002 (ip), vehicle: Klucel (hydroxypropylcellulose) (HPC)): 99 % of control
- T/C (dose: 100.0 mg/kg/injection, schedule: Q04DX002 (ip), vehicle: Klucel (hydroxypropylcellulose) (HPC)): 100 % of control
- T/C (dose: 200.0 mg/kg/injection, schedule: Q04DX002 (ip), vehicle: Klucel (hydroxypropylcellulose) (HPC)): 106 % of control
- T/C (dose: 400.0 mg/kg/injection, schedule: Q04DX002 (ip), vehicle: Klucel (hydroxypropylcellulose) (HPC)): 100 % of control

SMILES: Clc1ccccc1C=Nc1ccc(N=Cc2ccccc2Cl)cc1
- T/C [3]: 97 % of control
- T/C [4]: 91 % of control
- T/C [5]: 92 % of control

SMILES: C=C(C)CC1(CCCCCCCCCC)C(=O)NC(=O)NC1=O
- T/C (dose: 50.0 mg/kg/injection, schedule: Q04DX003 (ip), vehicle: saline with Tween-80): 105 % of control
- T/C (dose: 100.0 mg/kg/injection, schedule: Q04DX003 (ip), vehicle: saline with Tween-80): 102 % of control
- T/C (dose: 200.0 mg/kg/injection, schedule: Q04DX003 (ip), vehicle: saline with Tween-80): 93 % of control

SMILES: CN=C(N)c1ccc(N=C(N)c2ccc(-c3ccc(C(N)=Nc4ccc(C(N)=NC)cc4)cc3)cc2)cc1
- T/C (dose: 18.0 mg/kg/injection, schedule: Q01DX009 (ip), vehicle: saline): 154 % of control
- T/C (dose: 625.0 micrograms/kg/injection, schedule: Q01DX009 (ip), vehicle: saline with Tween-80): 91 % of control
- T/C (dose: 1250.0 micrograms/kg/injection, schedule: Q01DX009 (ip), vehicle: saline with Tween-80): 108 % of control
- T/C (dose: 2500.0 micrograms/kg/injection, schedule: Q01DX009 (ip), vehicle: saline with Tween-80): 108 % of control

SMILES: O=S(=O)(c1ccc(Cl)cc1)N(Cl)Cl
- T/C [21]: 107 % of control
- T/C (dose: 12.5 mg/kg/injection, schedule: Q01DX009 (ip), vehicle: Klucel (hydroxypropylcellulose) (HPC)): 100 % of control
- T/C [22]: 101 % of control and 116 % of control
- T/C (dose: 50.0 mg/kg/injection, schedule: Q01DX009 (ip), vehicle: Klucel (hydroxypropylcellulose) (HPC)): 105 % of control

SMILES: CC12CC3OC(=O)C1COC14OC5(C2C1=O)C(O)(CCC1C4CC(O)C2(O)CC=CC(=O)C12C)C(=O)OC35C (stereo not given)
- T/C (dose: 12.0 mg/kg/injection, schedule: Q01DX009 (ip), vehicle: Klucel (hydroxypropylcellulose) (HPC)): 94 % of control
- T/C (dose: 24.0 mg/kg/injection, schedule: Q01DX009 (ip), vehicle: Klucel (hydroxypropylcellulose) (HPC)): 110 % of control
- T/C (dose: 48.0 mg/kg/injection, schedule: Q01DX009 (ip), vehicle: Klucel (hydroxypropylcellulose) (HPC)): 109 % of control

SMILES: CCC#CC(=O)OC
- T/C [1]: 94 % of control
- T/C [2]: 103 % of control
- T/C [18]: 114 % of control

SMILES: O=C(CNC(=O)NCc1ccco1)NNC(=O)Nc1ccc(F)c(Cl)c1
- T/C [12]: 101 % of control
- T/C [13]: 106 % of control
- T/C (dose: 240.0 mg/kg/injection, schedule: Q01DX005 (ip), vehicle: saline with Tween-80): 110 % of control

SMILES: NC(=NCc1ccncc1)N/N=C\c1ccnc2ccccc12
- T/C (dose: 60.0 mg/kg/injection, schedule: Q01DX005 (ip), vehicle: saline): 107 % of control
- T/C (dose: 120.0 mg/kg/injection, schedule: Q01DX005 (ip), vehicle: saline): 106 % of control

— PubChem BioAssay AID330 (DTP/NCI, 2004)
